Source: PubChem BioAssay AID179 (DTP/NCI, 2004)
Several values for one entry are separate records, joined by “and”; a condition that tells them apart may be missing. Identical values can stand only once. Activity calls are given as the source filed them.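 The calls were made as follows: active = compounds giving half or more protection of infected cells from virus-caused growth loss, again on retest; inactive = the rest.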 Where a SMILES comes first, the peptide text is derived from it. Bridges are numbered along the chain shown (N, C = ends). Roman numbers before positions name the chains, in order. The star is where a group is joined. Cbz = O=C(OCc1ccccc1)*

System: CEM cells HIV-1 protection, formazan growth assay
Assay: NCI AIDS Antiviral Assay
Conditions: for IC50: measured here: growth of uninfected CEM cells
Method in brief: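 Protection of CEM cells against HIV-1 measured as cell growth via soluble formazan read-out, with five concentrations tested on both infected and uninfected cells; failure to protect may reflect toxicity.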

| Compound | outcome | EC50 [µM] | IC50 |
| --- | --- | --- | --- |
| CC(C)(C)C(C#N)(C#N)c1ccc(C(C#N)(C#N)C(C)(C)C)nn1 | inactive | – | – |
| Cc1ccc(-c2c(C#N)c(-c3ccc([N+](=O)[O-])cc3)c(C#N)c(=O)n2NS(=O)(=O)c2ccc(C)cc2)cc1 | – | > 200 | 12 µM |
| Nc1nc(C=O)nc2c1ncn2C1OC(CO)C(O)C1O (stereo not drawn) | – | > 200 | 30.9 µM |
| [Ni+2].[O-]/C(=N\N=C/c1ccc(C(F)(F)F)cc1)c1ccncc1.[O-]/C(=N\N=C\c1ccc(C(F)(F)F)cc1)c1ccncc1 | – | > 100 | 16.6 µM |
| CC(C)(C)[Si](C)(C)OCC1OC(n2ccc(=O)[nH]c2=O)C(O[Si](C)(C)C(C)(C)C)C1(O)C/C=N/O (stereo not drawn) | – | > 200 | 7.59 µM |
| O=C(O)Cn1c(=O)[nH]c(=O)c2[nH]cnc21 | – | > 1200 | > 1200 µM |
| CC1(C)CC(=O)C(CC2C(=O)CC(C)(C)CC2=O)C(=O)C1 | – | > 200 | > 200 µM |
| CC1CCN(Cc2cccnc2)CC1 | inactive | – | – |
| CNc1ncnc2nc(C)c(C)nc12 | – | > 200 | > 200 µM |
| O=C1CC2(c3ccccc3)CCCCC2=NN1 (stereo not drawn) | – | > 200 | > 200 µM |
| Cc1ccc2c(c1CCCC(C)(C)O)C(=O)C(=O)C(C(C)C)=C2O | – | > 380 | 132 µM |
| O=C(Cn1c2ccc(Br)cc2c2nc3ccccc3nc21)NC1CCCCC1 | – | > 100 | > 100 µM |
| O=C(NNC(=O)c1ccccc1SSc1ccccc1C(=O)NNC(=O)c1ccccc1S)c1ccccc1S | – | 17.8 | 33.1 µM |
| CC(C)NC1CCCCC2c3cc(F)ccc3[C@]12O (stereo partly drawn) | – | 60.3 | > 200 µM |
| CC#CC(O)(C(=O)OCCCN(C)C)C1CCCCC1 (stereo not drawn) | – | > 200 | > 200 µM |
| O=C(O)C1=Cc2cccc3cccc(c23)C1=O | inactive | – | – |
| COC(=O)C1(C(C)C)CCc2c(OC)ccc(OC)c2C1=O (stereo not drawn) | inactive | – | – |
| O=CNNC(=O)Nc1cccc2ccccc12 | – | > 200 | > 200 µM |
| NC(=O)c1c[se]c(C2OC(CO)C(O)C2O)n1 (stereo not drawn) | inactive | – | – |
| O=c1cc(Nc2cccc(O)c2)[nH]c(=O)[nH]1 | inactive | – | – |
| O=C1CC(c2ccccc2)S(=O)(=O)c2ccccc2N1 (stereo not drawn) | – | > 200 | > 200 µM |
| OCC(O)C(O)C(O)C1SC(c2ccccc2)=NN1c1ccccc1 (stereo not drawn) | inactive | – | – |
| O=C(CC1Sc2ccccc2NC1=O)Nc1cccc(Cl)c1 (stereo not drawn) | – | > 56.2 | > 56.2 µM |

| Compound | outcome | EC50 [µM] | IC50 |
| --- | --- | --- | --- |
| CC(C)C(NC(=O)C(N)CCC(=O)O)C(=O)O (stereo not drawn) (H-Glu-Val-OH; configuration not given here) | inactive | – | – |
| CC(C)(C)CC1=CC(=O)C(C2=CC(=O)C(CC(C)(C)C)=CC2=O)=CC1=O | – | > 2 | > 2 µM |
| COc1ccc(OC)c(NC(=O)C(=O)C(C(C)=O)c2nc3ccc(Cl)cc3[nH]c2=O)c1 (stereo not drawn) | – | > 81.3 | > 81.3 µM |
| Nc1ccc(S2(c3ccc(N)cc3)C=C(c3ccccc3)C(c3ccccc3)=C2)cc1 | – | > 200 | > 200 µM |
| O=C(O)c1ccc(Nc2nc3nn(Cc4ccccc4)cc3c(=O)s2)cc1 | – | > 195 | > 195 µM |
| O=[N+]([O-])C(/C=C(\Cl)[N+](=O)[O-])=C(N1CCCCC1)N1CCCCC1 | – | > 200 | 75.9 µM |
| CN(C)CCCNC(=O)c1cc(NC(=O)c2cc(NC(=O)c3cc(NC(=O)c4cncc(C(=O)Nc5cc(C(=O)Nc6cc(C(=O)Nc7cc(C(=O)NCCCN(C)C)n(C)c7)n(C)c6)n(C)c5)c4)cn3C)cn2C)cn1C | – | > 100 | > 100 µM |
| CC(C(=O)Oc1ccc2ccccc2c1-c1c(O)ccc2ccccc12)c1ccccc1 (stereo not drawn) | – | > 2.51 | > 2.51 µM |
| CN(C)CCSc1cccc(-c2cc(-c3cccs3)nc(SCCN(C)C)n2)c1 | – | > 282 | 2.24 µM |
| Cc1cn(C2CC(O[Si](C)(C)C(C)(C)C)C(/C=N\O)O2)c(=O)[nH]c1=O (stereo not drawn) | – | > 200 | > 200 µM |
| CC(C)C(NC(=O)C(CSSCC(NC(=O)OCc1ccccc1)C(=O)NC(C(=O)O)C(C)C)NC(=O)OCc1ccccc1)C(=O)O (stereo not drawn) (I: Cbz-Cys-Val-OH / II: Cbz-Cys-Val-OH; disulfide I:1-II:1; configuration not given here) | – | > 200 | 112 µM |
| COc1ccc2c(c1)C(=O)C13CC(C(=O)N(C)C)C(OC(C)=O)(CCC21)C3 (stereo not drawn) | – | > 95.5 | > 95.5 µM |
| C=CCOCCCC(=O)C(=[N+]=[N-])C(=O)OC | – | > 251 | 57.5 µM |
| COc1ccc(C(O)C/[N+]([O-])=C/c2ncc([N+](=O)[O-])n2C)cc1 (stereo not drawn) | inactive | – | – |
| Cc1cc(C=O)c(C)c2c1[nH]c1ccccc12 | – | > 200 | 7.59 µM |
| Clc1cc2cc3c(Br)coc3nc2cc1Cl | – | > 16.2 | > 16.2 µM |
| O=C(O)/C(Cl)=C(\Cl)C(=O)Nc1ccc(Cl)cc1Cl | inactive | – | – |
| CON(C)C(=O)C1CCCO1 (stereo not drawn) | – | > 200 | > 200 µM |
| O=P(O)(OCC(O)O)OCC(O)O | inactive | – | – |
| CC1(C)OC2C(=O)C=C(COCc3ccccc3)C2O1 (stereo not drawn) | – | > 200 | 28.2 µM and 10 µM |
| Cc1c2c(n(CCc3ccc(Cl)cc3)c1C)NC(c1ccccc1)C(C#N)S2(=O)=O (stereo not drawn) | – | > 200 | 8.91 µM |
| COP1(=O)CC2C(Cl)(Cl)C2(C)C1 (stereo not drawn) | inactive | – | – |
| COc1ccc(/C=C\c2cc(OC)c(OC)c(OC)c2)cc1OC(=O)CCC(=O)O | – | > 0.2 | 0.000562 µM |

| Compound | outcome | EC50 [µM] | IC50 |
| --- | --- | --- | --- |
| C/C(=C/OS(=O)(=O)C(F)(F)F)c1ccccc1 | – | > 200 | 57.5 µM |
| C/C=C(\C)C(=O)OCC12C(OC(C)=O)CC(C)C(C)(CCC3=CC(=O)OC3)[C@H]1CCCC21CO1 (stereo partly drawn) | – | > 75.9 | > 75.9 µM |
| O=C(Nc1ccccc1)OCCN=c1c2ccccc2ccc2ccccc12 | – | 17 | 24.5 µM |
| CC(=O)Oc1cc(OC(C)=O)c(CC=C(C)C)c(-c2cc3ccc(OC(C)=O)c(C/C=C(\C)CCC=C(C)C)c3o2)c1 | – | > 4.57 | > 4.57 µM |
| Cc1cc2cccc(Cl)c2nc1C(=O)c1ccccc1 | – | > 6.61 | > 6.61 µM |
| Cn1c(O)c(C=Nc2ccccc2Cl)c(=O)n(C)c1=O | inactive | – | – |
| NCCCNCc1c2ccccc2c(CNCCCN)c2ccccc12 | – | > 120 | 1.95 µM |
| Cc1ccc2nc(-c3ccc(C(C)(C)C)cc3)oc(=O)c2c1 | – | > 200 | 23.4 µM |
| NNC(=S)NNC(N)=O | – | 58.9 | > 200 µM |
| CC(C)(C)C(=O)OC1CCOP(=O)(OCC2OC(n3cc(F)c(=O)[nH]c3=O)CC2O)O1 (stereo not drawn) | – | > 200 | 2.69 µM |
| Cc1cccc(N=Nc2c(C)nn(C(=O)c3ccccc3)c2C)c1 | inactive | – | – |
| Cc1nc(-n2nc(-c3ccccc3)cc2-c2ccccc2)sc1C(=O)/C=C/c1ccc(/C=C/C(=O)c2sc(-n3nc(-c4ccccc4)cc3-c3ccccc3)nc2C)cc1 | – | > 22.9 | > 22.9 µM |
| COC(=O)C1C2C=CC(C2)N1[C@@H](C)c1ccccc1 (stereo partly drawn) | – | > 28.2 | > 28.2 µM |
| NCCCNCCS | – | > 589 | 30.2 µM |
| O=C1CC[C@@]23CC(=O)O[C@@H]2CCCC3C1 (stereo partly drawn) | inactive | – | – |
| CCOC(=O)c1cc(-c2ccc(Cl)cc2)c([N+](=O)[O-])n1C | – | > 200 | 26.9 µM |
| CC(/C=C1\N=C(c2ccccc2)OC1=O)=C\c1ccccc1 | – | > 200 | 105 µM |
| O=C(/C=C/c1ccc(O)c([N+](=O)[O-])c1)CC(=O)/C=C/c1ccc(O)c([N+](=O)[O-])c1 | – | > 200 | 25.7 µM |
| Cc1ccc(S(=O)(=O)OC2CCN(C)CC2)cc1 | – | > 200 | > 200 µM |
| CC(C)C(OC(=O)c1ccc(NCc2cc(O)ccc2O)cc1)C(C)C | – | > 200 | 1.41 µM |
| COc1ccc([C@@H]2ON(C)[C@H]3CN(C)C(=O)[C@@H]23)cc1 | – | > 200 | > 200 µM |
| C1OC2OCC1O2 | – | > 2450 | > 2450 µM |
| O=c1c(O)cccc2cc(O)c(O)c(O)c12 | – | > 427 | 23.4 µM |

| Compound | outcome | EC50 [µM] | IC50 |
| --- | --- | --- | --- |
| C[Si](C)(C)/C(Br)=C\CCN1C(=O)CCC1=O | inactive | – | – |
| CCCO/N=[N+](\[O-])N(CC)CC | – | > 8910 | > 8910 µM |
| COc1ccc(Cc2cc(N=O)c(C)cc2O)cc1 | – | > 200 | 12.6 µM |
| O=C(O)c1cc2cccc(O)c2cc1O | – | > 200 | > 200 µM |
| O=C(/C=C/c1ccc(Cl)cc1)c1ccncc1 | – | > 40.7 | 38 µM |
| CCCCCCCCCCCCCCCCCCNC(=S)NC=C(C(N)=O)C(N)=O | – | > 100 | > 100 µM |
| O=c1[nH]n(Cc2ccccn2)c2ccc([N+](=O)[O-])cc12 | – | > 200 | > 200 µM |
| O=C(O)CCC(NC(=O)/C(=C/c1ccccc1)NC(=O)c1ccccc1)C(=O)O (stereo not drawn) | – | > 200 | > 200 µM |
| Cc1ccc(-c2c(C#N)c(N)nc3c2CCS(=O)(=O)c2ccccc2-3)cc1 | – | > 200 | 77.6 µM |
| OC(c1ccccc1)c1cccc(C(O)c2ccccc2)c1 (stereo not drawn) | – | > 123 | > 123 µM |
| CCOC(=O)/C(C#N)=C/c1ccnc2ccccc12 | – | > 200 | 3.8 µM |
| Cc1ccc(-c2[nH]c(=O)n(C3OC(CO)C(O)C(O)C3O)c(=O)c2C#N)cc1 (stereo not drawn) | – | > 200 | > 200 µM |
| NNC(=O)c1cc(=O)[nH][nH]1 | – | > 200 | > 200 µM |
| COc1cc(Cl)cc(=O)c(O)c1OC | – | > 437 | 20.9 µM |
| CCc1cccc(CC)c1NC(=O)CC1SC(N)=NC1=O (stereo not drawn) | – | > 427 | > 427 µM |
| Cc1c(N/C=C(\C#N)C(=O)c2ccc(Cl)cc2)c(=O)n(-c2ccccc2)n1C | – | > 200 | 72.4 µM |
| COc1ccc2c(c1)CCc1c(C(C)=O)c3ccccc3n1C2 | – | > 58.9 | > 58.9 µM |
| O=C1NC(N2CCCCC2)=N/C1=C\c1cccs1 | – | > 200 | 151 µM |
| Nn1c(CCCCCCCCc2nnc(COc3ccc(Cl)cc3)n2N)nnc1COc1ccc(Cl)cc1 | – | > 200 | 85.1 µM |
| O=C(O)c1sc(=S)sc1C(=O)O | inactive | – | – |
| C[N+]1(CCCCN2c3ccccc3Sc3cc(N=[N+]=[N-])ccc32)CCN(C(=O)CCNC(=O)Cc2ccc(C(=O)c3ccccc3)cc2)CC1 | – | > 100 | 15.5 µM |
